Experiment [1] concerns electroconvulsive shock (ECS) induced convulsions. In words: blocking electroconvulsive shock (ECS) induced convulsions (Swinyard et al. procedures). Type of experiment: in vivo.
Experiment [2] relates to scopolamine induced cognitive deficit. In words: passive avoidance response (PAR) test, scopolamine induced cognitive deficit. Type of experiment: in vivo. The settings on record: mice, sc or po (FIGS. 1 and 2). As for the experimental part: FIGS. 1 and 2 are plots showing the mean latency time in the passive avoidance response (PAR) test of Compound I and arecoline in reversing scopolamine induced cognitive deficits where Compound I is administered subcutaneously (sc) or orally (po).
(§1) See, for example Dilts and Berry, J. Pharmacology and Experimental Therapeutics 58, 279-285 (1967).

Experiment [3] has as its system amnestic effects of MK-801. In words: passive avoidance response (PAR) test, amnestic effects of MK-801. Type of experiment: in vivo. The following applies: mice. From the text: FIG. 3 is a plot showing the mean latency time in the PAR test of felbamate and Compound I in blocking the amnestic effects of MK-801.
FIG. 4 is a plot showing the mean latency time in the PAR test of Compound I and the corresponding monoacid-monocarbamate.
(§2) The NMDA receptor is strongly implicated in the production of long-term potentiation and subsequent memory processes (Morris, et al., Nature Vol. 319, pp 774-776 (1986)). Blockade of these sites produces amnestic effects in mice on the passive avoidance response.

Experiment [4] concerns cognitive deficits (scopolamine, MK-801). Nature of the experiment: cognitive enhancement (Examples I and II overall). Type of experiment: in vivo, mice. The following applies: data of Examples I and II.
Source text: as §1, §2

For experiment [5] the following is noted: literature statement; cited from earlier work.
In experiment [6] the test system is amnestic effects of MK-801. The settings on record: Chiamulera et al. 1990; cited from earlier work.
For experiment [7], the system named is scopolamine induced cognitive deficit. The settings on record: passive avoidance response test, mice; cited from earlier work.
Where [8] appears, read: SC, blocking ECS induced convulsions, read-out: ED50.

Read-outs that look alike come from different tables or passages of the source.

Regarding `NC(=O)N1c2ccccc2C=Cc2ccccc21` [Carbamazepine], the ED50 (usually the midpoint of the dose-response relation) in experiment [1] (setting [8]) was determined as 12 mg/kg.

With `NC(=O)OCC(CO)c1ccccc1` (stereo not drawn) [Compound I, 2-phenyl-1,3-propanediol monocarbamate], the “effectiveness in blocking ECS induced convulsions vs felbamate and other known anti-convulsants” value in experiment [1] (in words) was “significantly less effective than felbamate and other known anti-convulsants”. The compound further yielded an ED50 in experiment [1] (sc) of 173 mg/kg. The “antagonism of the amnestic effects of scopolamine” value in experiment [2] is reported as “antagonist for the amnestic effects of scopolamine over a very wide dosage range”. Further, in experiment [3], the “blocking the amnestic effects of MK-801” value is given as “effectively blocks the amnestic effects of MK-801 in this model at low doses” and the “effectiveness in blocking the effects of MK-801 vs the corresponding monoacid-monocarbamate” value is “more effective than the corresponding monoacid-monocarbamate”. Besides, the “effectiveness vs the corresponding dicarbamate and monoacid-monocarbamate compounds” value in experiment [4] was “significantly more effective than the corresponding dicarbamate and monoacid-monocarbamate compounds”.

In the case of `O=C1NC(=O)C(c2ccccc2)(c2ccccc2)N1` [Dilantin], the ED50 in experiment [1] (setting [8]) came out at 5.5 mg/kg.

For the compound `NC(=O)OCC(COC(N)=O)c1ccccc1` [Felbamate, 2-phenyl-1,3-propanediol dicarbamate], in experiment [1] (setting [8]), the ED50 was found to be 42.2 mg/kg. Moreover, in experiment [3], the “blocking the amnestic effects of MK-801” value is recorded as “does not block the effect of MK-801”. The anticonvulsant effect entry in experiment [5] is listed as “effective anticonvulsant agent”.

Regarding `C[C@]12N[C@H](Cc3ccccc31)c1ccccc12` [MK-801], in experiment [6], the cognitive deficits produced entry is reported as “produces cognitive deficits”.

`CCC1(c2ccccc2)C(=O)NC(=O)NC1=O` [Phenobarbital]: in experiment [1] (sc), it took a dose of 12 mg/kg to reach the 50% effect level (ED50).

As for `CN1[C@@H]2C[C@@H](OC(=O)[C@H](CO)c3ccccc3)C[C@H]1[C@@H]1O[C@@H]12` [Scopolamine], the amnestic effect result in experiment [7] is “well-known amnestic for mice in a passive avoidance response test”.

`CCCC(CCC)C(=O)O` [Valproate]: it took a dose of 550 mg/kg to reach the 50% effect level in experiment [1] (sc) (ED50).

These data come from patent US5492930A, “Method and formulation for treating CNS disorders” (Schering Corporation, priority 1994, dated 1996).
